“Also recorded” adds a separate entry of the source.
Legend:
[1] = system: murine cerebral aneurysm model; experiment: Mouse intracranial aneurysm model: aneurysm formation; format: in vivo, mouse (C57BL/6); conditions: controls 57%, n=6 and 7
Method: Mouse intracranial aneurysm model. Murine intracranial aneurysms were created in female 8-12 week-old C57BL/6 mice (Charles River Laboratories, Wilmington, MA) following established protocols. Briefly, the left common carotid artery and the right renal artery are ligated to induce hypertension. One week later, an Alzet micro-osmotic pump model 1004 (DURECT Corp, Cupertino, CA) was implanted subdermally to deliver Angiotensin II (Bachem AG, Switzerland) at 1000 ng/kg/min; and 10 μL of 0.8% porcine elastase (Worthington Biochemical Corp, Lakewood, NJ) in normal saline was injected into the right basal cistern using stereotactic coordinates: 1.2 mm rostral of bregma, 0.7 mm lateral of midline and 5.3 mm ventral of the dorsal aspect of the skull. The animals were fed a hypertensive diet with 8% NaCl and 0.12% BAPN (TEKLAD). PBS-treated animals received […] injection of phosphate buffered saline subcutaneously every two days. […] All animal experimentation was performed under the Institutional Animal Care and Use Committee-approved protocols of the University of Pittsburgh.

[2] = system: cytokine expression in aneurysm-induced cerebral vasculature; experiment: Mouse cytokine arrays (96 cytokines) of aneurysm-induced cerebral vasculature; format: in vivo, mouse (C57BL/6); conditions: treated aneurysmal mice vs PBS-treated aneurysmal mice or sham surgery controls; n=3 each
Method: Temporal analysis and comparison with pharmacologic treatment were performed.
Mouse cytokine Arrays. Raybiotech cytokine arrays C1000 (AAM-CYT-1000, Raybiotech, Peachtree Corners, GA) were used to analyze 96 cytokines in aneurysm-induced cerebral vasculature at 2 and 3 weeks (n=3 each) and compared with reparixin-, clopidogrel-treated animals, and with sham surgery animals as controls (n=2).

SMILES	aneurysm formation (mice that developed aneurysms) ([1]; 1 mg/kg clopidogrel, p<0.001) [%]	effect on cytokine expression / inflammatory profile in aneurysmal mice (heatmap, FIG. 4A) [2]	aneurysm formation (mice that developed aneurysms) ([1]; 10 mg/kg reparixin, p=0.0163) [%]
COC(=O)[C@H](c1ccccc1Cl)N1CCc2sccc2C1 [clopidogrel]	0	moderate response	–
CC(C)Cc1ccc([C@@H](C)C(=O)NS(C)(=O)=O)cc1 [reparixin]	–	vastly attenuated inflammatory profile; also recorded: robust anti-inflammatory effects	14

From US20250027954A1, “METHODS OF DETECTING AND TREATING CEREBRAL ANEURYSMS” (UNIVERSITY OF PITTSBURGH-OF THE COMMONWEALTH SYSTEM OF …, priority 2022, published 2025)
